Our source for the KD and Kd values is PMC6642015 (Cell chemical biology, 2019).

What all share (assay): isothermal titration calorimetry
Common to all, as to format: binding

Assay [1] deals with T1, human CblA (MMAA) (Homo sapiens, UniProt Q8IVH4, K276A).
T1 sequence (Q8IVH4 66-418 K276A limits assumed): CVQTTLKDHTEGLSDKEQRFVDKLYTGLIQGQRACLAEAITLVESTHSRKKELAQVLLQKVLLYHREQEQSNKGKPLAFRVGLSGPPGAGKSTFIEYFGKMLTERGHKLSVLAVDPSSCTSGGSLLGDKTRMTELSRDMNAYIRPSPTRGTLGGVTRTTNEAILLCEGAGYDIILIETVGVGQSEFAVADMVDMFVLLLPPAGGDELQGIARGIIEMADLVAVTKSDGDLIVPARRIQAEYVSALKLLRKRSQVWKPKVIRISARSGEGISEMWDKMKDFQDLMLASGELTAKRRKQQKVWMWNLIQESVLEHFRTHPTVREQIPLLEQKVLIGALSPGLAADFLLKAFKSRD
Particulars: pH 7.5, 150 mM KCl, 2 mM MgCl2, 20 °C; one-site model.

Assay [2] addresses T2, human CblA (MMAA) (Homo sapiens, UniProt Q8IVH4).
T2 sequence (Q8IVH4 66-418 limits assumed): T1 sequence (Q8IVH4 66-418 K276A limits assumed) with A211K

The target of assay [3] is T3, human CblA (MMAA) (Homo sapiens, UniProt Q8IVH4, Q273A).
T3 sequence (Q8IVH4 66-418 Q273A limits assumed): T1 sequence (Q8IVH4 66-418 K276A limits assumed) with Q208A, A211K
Particulars: pH 7.5, 150 mM KCl, 2 mM MgCl2, 20 °C; one-site model.

The target in assay [4] is T4, human CblA (MMAA) (Homo sapiens, UniProt Q8IVH4, G274S).
T4 sequence (Q8IVH4 66-418 G274S limits assumed): T1 sequence (Q8IVH4 66-418 K276A limits assumed) with G209S, A211K
The settings on record: pH 7.5, 150 mM KCl, 2 mM MgCl2, 20 °C; one-site model.

In assay [5] the target is T5, human CblA (MMAA) (Homo sapiens, UniProt Q8IVH4, K276E).
T5 sequence (Q8IVH4 66-418 K276E limits assumed): T1 sequence (Q8IVH4 66-418 K276A limits assumed) with A211E
Particulars: pH 7.5, 150 mM KCl, 2 mM MgCl2, 20 °C; one-site model.

The target of assay [6] is T6, human CblA (MMAA) (Homo sapiens, UniProt Q8IVH4, G278D).
T6 sequence (Q8IVH4 66-418 G278D limits assumed): T1 sequence (Q8IVH4 66-418 K276A limits assumed) with A211K, G213D
The settings on record: pH 7.5, 150 mM KCl, 2 mM MgCl2, 20 °C; one-site model.

Molecules are shown by their SMILES. Positions count from the first letter of the chain named.

For `Nc1nc2c(ncn2[C@@H]2O[C@H](COP(=O)(O)OP(=O)(O)O)[C@@H](O)[C@H]2O)c(=O)[nH]1` [GDP], the KD result at human CblA (MMAA) [1], at human CblA (MMAA) [3], at human CblA (MMAA) [4], at human CblA (MMAA) [5] and at human CblA (MMAA) [6] was “largely unaffected by switch III mutations (Table S1)” each time. Moreover, binding on human CblA (MMAA) [2] was characterised by a dissociation constant (Kd) of 1.1 ± 0.3 µM.
